Test results published in ChEMBL document CHEMBL1134933, “Hydroxamate based inhibitors of adenylyl cyclase. Part 2: the effect of cyclic linkers on P-site binding” (Bioorg Med Chem Lett, 2002).

Target: Adenylate cyclase type 5 (Homo sapiens, UniProt O95622)
Assay: Inhibitory concentration against Type V Adenyl Cyclase enzyme

Chain of Adenylate cyclase type 5 (O95622 whole entry): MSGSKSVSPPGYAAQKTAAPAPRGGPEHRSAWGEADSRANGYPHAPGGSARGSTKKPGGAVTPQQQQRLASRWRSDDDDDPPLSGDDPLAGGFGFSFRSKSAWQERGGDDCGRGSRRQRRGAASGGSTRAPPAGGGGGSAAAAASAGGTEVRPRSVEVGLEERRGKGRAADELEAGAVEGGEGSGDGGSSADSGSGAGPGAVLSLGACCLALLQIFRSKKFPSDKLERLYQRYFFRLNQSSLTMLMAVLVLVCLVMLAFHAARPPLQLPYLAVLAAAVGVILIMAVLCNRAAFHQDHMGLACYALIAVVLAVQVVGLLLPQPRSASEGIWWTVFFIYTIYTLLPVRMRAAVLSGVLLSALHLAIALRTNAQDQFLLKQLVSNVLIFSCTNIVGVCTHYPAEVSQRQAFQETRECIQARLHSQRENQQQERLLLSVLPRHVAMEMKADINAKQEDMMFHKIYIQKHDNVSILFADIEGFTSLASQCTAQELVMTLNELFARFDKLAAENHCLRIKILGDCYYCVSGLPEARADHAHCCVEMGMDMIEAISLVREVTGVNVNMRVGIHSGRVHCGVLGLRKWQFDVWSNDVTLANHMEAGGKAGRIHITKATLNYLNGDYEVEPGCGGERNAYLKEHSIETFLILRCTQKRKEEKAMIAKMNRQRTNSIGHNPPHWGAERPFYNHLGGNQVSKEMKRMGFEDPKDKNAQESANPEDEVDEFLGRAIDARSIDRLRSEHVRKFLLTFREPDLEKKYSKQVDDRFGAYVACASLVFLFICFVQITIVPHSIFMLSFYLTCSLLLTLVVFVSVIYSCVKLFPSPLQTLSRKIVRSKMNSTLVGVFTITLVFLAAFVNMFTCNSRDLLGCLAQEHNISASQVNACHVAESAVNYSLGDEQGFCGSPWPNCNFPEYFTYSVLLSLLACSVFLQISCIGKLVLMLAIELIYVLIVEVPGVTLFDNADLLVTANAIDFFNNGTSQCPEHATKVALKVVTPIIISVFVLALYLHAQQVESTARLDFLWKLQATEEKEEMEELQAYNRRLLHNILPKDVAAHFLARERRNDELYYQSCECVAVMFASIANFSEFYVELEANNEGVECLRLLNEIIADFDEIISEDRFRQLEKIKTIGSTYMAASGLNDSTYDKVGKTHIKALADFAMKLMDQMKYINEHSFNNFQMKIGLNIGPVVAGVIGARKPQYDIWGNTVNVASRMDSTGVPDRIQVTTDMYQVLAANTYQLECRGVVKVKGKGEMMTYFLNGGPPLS

Row | SMILES | IC50 [µM]
1 | Nc1ncnc2c1ncn2[C@@H]1CC[C@@H](OCC(=O)O)C1 | > 200
2 | Nc1ncnc2c1ncn2[C@H]1CC[C@@H](OCC(=O)O)C1 | > 200
3 | Nc1ncnc2c1ncn2[C@H]1C=C[C@@H](OCC(=O)O)C1 | 78
4 | Nc1ncnc2c1ncn2[C@@H]1C=C[C@H](OCC(=O)O)C1 | 98
5 | Nc1ncnc2c1ncn2[C@@H]1CC[C@H](OCC(=O)O)C1 | 79
6 | Nc1ncnc2c1ncn2[C@@H]1C=C[C@@H](OCC(=O)O)C1 | 72
7 | Nc1ncnc2c1ncn2[C@H]1CC[C@H](OCC(=O)O)C1 | > 200
8 | Nc1ncnc2c1ncn2[C@H]1C=C[C@H](OCC(=O)O)C1 | > 200
9 | Nc1ncnc2c1ncn2[C@@H]1C=C[C@H](OCC(=O)NO)C1 (stereo in doubt; 5a) | 102
10 | Nc1ncnc2c1ncn2[C@H]1C=C[C@@H](OCC(=O)NO)C1 (stereo in doubt; 5b) | 13.6
11 | Nc1ncnc2c1ncn2[C@H]1C=C[C@@H](OCC(=O)NO)C1 (stereo in doubt; 5c) | 116
12 | Nc1ncnc2c1ncn2[C@@H]1C=C[C@H](OCC(=O)NO)C1 (stereo in doubt; 5d) | 96
13 | Nc1ncnc2c1ncn2[C@H]1CC[C@@H](OCC(=O)NO)C1 (stereo in doubt; 8a) | 110
14 | Nc1ncnc2c1ncn2[C@@H]1CC[C@H](OCC(=O)NO)C1 (stereo in doubt; 8b) | 10.8
15 | Nc1ncnc2c1ncn2[C@H]1CC[C@@H](OCC(=O)NO)C1 (stereo in doubt; 8c) | > 200
16 | Nc1ncnc2c1ncn2[C@@H]1CC[C@H](OCC(=O)NO)C1 (stereo in doubt; 8d) | 109
